Consider 42 compounds from patent publication US9505734B2, “Phenyl C-glucoside derivative containing deoxyglucose structure, preparation method and use thereof” (Tianjin Institute of Pharmaceutical Research, priority 2012, dated 2016).

Structures are written as SMILES.

The test system of the first data set is SD rats (type 2 diabetes model). Kind of data set: model for rat urine glucose excretion (glucose-oxidase method). Type of data set: in vivo. Particulars: type 2 diabetes model SD rats, 6 mg/kg intragastrically, glucose 2 g/kg at 0.5 h, urine collected 0-12 h. As to the method: The health SD rats are injected intraperitoneally with multiple low doses of streptozotocin for modeling (type 2 diabetes model) after feeding with high-fat and high-sucrose diet, and the content of blood glucose is measured before and after modeling. After the modeling successful, the rats for modeling are randomly divided (8 rats/group) into one blank group (administering the same volume of 0.5% CMC sodium solution) and several groups for compounds to be tested (6 mg/kg) according to the content of 24-hour urine glucose and the body weight. Rats in each group are fasted for 16 hours before experiment. The experimental rats are administered intragastrically with glucose (2 g/kg) at 0.5 h after intragastrical administration with compounds to be tested. The urine is collected at the time-period of 0-12 h after administration, and the urine glucose values are measured at each time-period by glucose-oxidase method.
The inhibiting activity of the cocrystal of I-D1-6 and L-proline on SGLT2 is measured by the model for rat urine glucose excretion.
The health SD rats are injected intraperitoneally with multiple low doses of streptozotocin for modeling (type 2 diabetes model) after feeding with high-fat and high-sucrose diet for one month, and the content of blood glucose is measured before and after modeling. After the modeling successful, the rats for modeling are randomly divided (8 rats/group) into one blank group (administering the same volume of 0.5% CMC sodium solution) and groups of tested compound (6 mg/kg) according to the content of 24-hour urine glucose and the body weight. Rats in each group are fasted for 16 hours before experiment. The experimental rats are administered intragastrically with the glucose (2 g/kg) at 0.5 h after intragastrical administration with the cocrystal of I-D1-6 and L-proline prepared in Example 138. The urine is collected at the time-period of 0-12 h after administration, and the urine glucose values are measured at each time-period by glucose-oxidase method.
In the case of `OCC1OC(c2ccc(F)c(Cc3cc4ccccc4s3)c2)CC(O)C1O` (stereo not drawn) [drawing 242], the “Urine glucose excretion (mg/200 g body weight of the rat)” value (from here on “Urine glucose excretion”) was 716 mg/200 g body weight of the rat.
In the case of `COc1ccc(Cc2cc(C3OC(C)C(O)C(O)C3O)ccc2Cl)cc1` (stereo not drawn) [drawing 243], the “Urine glucose excretion” value is recorded as 457 mg/200 g body weight of the rat.
`OCC1CC(O)C(O)C(c2ccc(Cl)c(Cc3ccc(O[C@H]4CCOC4)cc3)c2)O1` (stereo partly drawn) [drawing 244]: the “Urine glucose excretion” value is 723 mg/200 g body weight of the rat.
Consider `CCc1ccc(Cc2c(Cl)ccc3c2COC32OC(CO)CC(O)C2O)cc1` (stereo not drawn) [drawing 245], for which the “Urine glucose excretion” value is reported as 634 mg/200 g body weight of the rat.
For the compound `CCc1ccc(Cc2c(Cl)ccc3c2COC32OC(CO)C(O)CC2O)cc1` (stereo not drawn) [drawing 246], the “Urine glucose excretion” value is given as 712 mg/200 g body weight of the rat.
Regarding `CCOc1ccc(Cc2cc(C3SC(CO)CC(O)C3O)c(OC)cc2C)cc1` (stereo not drawn) [drawing 247], the “Urine glucose excretion” value is given as 677 mg/200 g body weight of the rat.
Still for that read-out and setting: the same measure for `CCc1ccc(Cc2c(Cl)ccc3c2COC32CC(O)C(O)C(CO)O2)cc1` (stereo not drawn) [drawing 248]: 717 mg/200 g body weight of the rat; for `CCOc1ccc(Cc2cc(C3CC(O)C(O)C(CO)S3)c(OC)cc2C)cc1` (stereo not drawn) [drawing 249]: 786 mg/200 g body weight of the rat; for `CCOc1ccc(Cc2cc([C@]34OC[C@](C)(O3)[C@@H](O)[C@H](O)[C@H]4O)ccc2Cl)cc1` [drawing 250]: 665 mg/200 g body weight of the rat.
For the compound `CCOc1ccc(Cc2cc([C@@]34OC[C@@](CO)(C[C@H](O)[C@H]3O)O4)ccc2Cl)cc1` [drawing 251], the “Urine glucose excretion” value was 751 mg/200 g body weight of the rat.
On to `CCOc1ccc(Cc2cc(C3OC(C)CC(O)C3O)ccc2Cl)cc1` (stereo not drawn) [drawing 252], for which the “Urine glucose excretion” value is 765 mg/200 g body weight of the rat.
On to `CC1OC(c2ccc(F)c(Cc3cc4ccccc4s3)c2)CC(O)C1O` (stereo not drawn) [drawing 253], for which the “Urine glucose excretion” value is recorded as 656 mg/200 g body weight of the rat.
Still for that read-out and setting: the same measure for `CCc1ccc(Cc2c(Cl)ccc3c2COC32CC(O)CC(CO)O2)cc1` (stereo not drawn) [drawing 254]: 677 mg/200 g body weight of the rat; for `CCc1ccc(Cc2c(Cl)ccc3c2COC32OC(C)C(O)C(O)C2O)cc1` (stereo not drawn) [drawing 255]: 755 mg/200 g body weight of the rat; for `CCOc1ccc(Cc2cc(C3SC(CO)C(O)CC3O)c(OC)cc2C)cc1` (stereo not drawn) [drawing 256]: 766 mg/200 g body weight of the rat.
On to `CCOc1ccc(Cc2cc(C3SC(CO)C(O)CC3O)c(OC)cc2C)cc1` (stereo not drawn) [drawing 257], for which the “Urine glucose excretion” value is listed as 728 mg/200 g body weight of the rat.
On the same count and under the same terms, the same measure for `CCOc1ccc(Cc2cc(C3SC(C)C(O)C(O)C3O)c(OC)cc2C)cc1` (stereo not drawn) [drawing 258]: 698 mg/200 g body weight of the rat; for `CCOc1ccc(Cc2cc([C@]34C[C@@H](O)[C@H](O)[C@](CO)(CO3)O4)ccc2Cl)cc1` [drawing 259]: 565 mg/200 g body weight of the rat.
Still for that read-out and setting: as for `CCOc1ccc(Cc2cc([C@]34OC[C@](CO)(O3)[C@@H](O)C[C@H]4O)ccc2Cl)cc1` [drawing 260], the figure is 711 mg/200 g body weight of the rat; as for `Cc1ccc(C2OC(C)C(O)CC2O)cc1Cc1ccc(-c2ccc(F)cc2)s1` (stereo not drawn) [drawing 261], 701 mg/200 g body weight of the rat.
On the same count and under the same terms, as for `OCC1CCC(O)C(c2ccc(Cl)c(Cc3ccc(O[C@H]4CCOC4)cc3)c2)O1` (stereo partly drawn) [drawing 262], the figure is 721 mg/200 g body weight of the rat.
In the case of `CCOc1ccc(Cc2cc(C3CCC(O)C(CO)S3)c(OC)cc2C)cc1` (stereo not drawn) [drawing 263], the “Urine glucose excretion” value is reported as 730 mg/200 g body weight of the rat.

A further data set concerns Mice.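 Note: mice weighing 18–20 g, both sexes in equal proportion within each group.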
Experiment: not given
Particulars: both, mouse, in vivo, 750 mg/kg, 1 week.
In the case of `OCC1OC(c2ccc(F)c(Cc3cc4ccccc4s3)c2)C(O)C(O)C1O` (stereo not drawn) [drawing 265], the “Behaviors after administration with the compound to be tested (deaths)” value (“Behaviors after administration” below) worked out at 7 dead.
On the same count and under the same terms, as for `CCOc1ccc(Cc2cc(C3SC(CO)C(O)C(O)C3O)c(OC)cc2C)cc1` (stereo not drawn) [drawing 277], the figure is 10 dead.

The data set is the same for the next values; noted with them: mice, 10 mice/group, single intragastric dose 750 mg/kg, within one week.
For the compound `CCOc1ccc(Cc2cc(C3OC(CO)C(O)C(O)C3O)ccc2Cl)cc1` (stereo not drawn) [drawing 264], the “Behaviors after administration” value was determined as 8 dead.
The same measure, in the same setting: as for `CCc1ccc(Cc2c(Cl)ccc3c2COC32OC(CO)C(O)C(O)C2O)cc1` (stereo not drawn) [drawing 266], the figure is 7 dead; as for `CCOc1ccc(Cc2cc([C@]34OC[C@](CO)(O3)[C@@H](O)[C@H](O)[C@H]4O)ccc2Cl)cc1` [drawing 267], 9 dead; as for `CCCOc1ccc(Cc2cc(C3OC(C)C(O)C(O)C3O)ccc2Cl)cc1` (stereo not drawn) [drawing 268], 6 dead.
Same read-out and setting: the same measure for `CCOc1ccc(Cc2cc(C3OC(CO)CC(O)C3O)ccc2Cl)cc1` (stereo not drawn) [drawing 269]: 2 dead; for `CCOc1ccc(Cc2cc(C3CC(O)C(O)C(CO)O3)ccc2Cl)cc1` (stereo not drawn) [drawing 270]: 2 dead.
Take `Cc1ccc(C2OC(CO)CC(O)C2O)cc1Cc1ccc(-c2ccc(F)cc2)s1` (stereo not drawn) [drawing 271]: the “Behaviors after administration” value turned out to be 3 dead.
Turning to `Cc1ccc(C2CC(O)C(O)C(CO)O2)cc1Cc1ccc(-c2ccc(F)cc2)s1` (stereo not drawn) [drawing 272], the “Behaviors after administration” value is listed as 5 dead.
Same read-out and setting: as for `CC1OC(c2ccc(F)c(Cc3cc4ccccc4s3)c2)C(O)C(O)C1O` (stereo not drawn) [drawing 273], the figure is 2 dead; as for `OCC1OC(c2ccc(Cl)c(Cc3ccc(O[C@H]4CCOC4)cc3)c2)C(O)CC1O` (stereo partly drawn) [drawing 274], 0 dead; as for `Cc1ccc(C2OC(CO)C(O)C(O)C2O)cc1Cc1ccc(-c2ccc(F)cc2)s1` (stereo not drawn) [drawing 275], 9 dead.
On the same count and under the same terms, as for `OCC1OC(c2ccc(Cl)c(Cc3ccc(O[C@H]4CCOC4)cc3)c2)C(O)C(O)C1O` (stereo partly drawn) [drawing 276], the figure is 7 dead.
In the case of `COc1ccc(Cc2cc(C3OC(C)C(O)C(O)C3O)ccc2Cl)cc1` (stereo not drawn) [drawing 278], the “Behaviors after administration” value is 7 dead.
Still for that read-out and setting: the same measure for `CCOc1ccc(Cc2cc(C3OC(C)C(O)C(O)C3O)ccc2Cl)cc1` (stereo not drawn) [drawing 279]: 1 dead; for `CCOc1ccc(Cc2cc(C3OC(CO)C(O)CC3O)ccc2Cl)cc1` (stereo not drawn) [drawing 280]: 3 dead; for `Cc1ccc(C2OC(C)C(O)C(O)C2O)cc1Cc1ccc(-c2ccc(F)cc2)s1` (stereo not drawn) [drawing 281]: 4 dead.
Same read-out and setting: the same measure for `Cc1ccc(C2OC(CO)C(O)CC2O)cc1Cc1ccc(-c2ccc(F)cc2)s1` (stereo not drawn) [drawing 282]: 3 dead; for `OCC1OC(c2ccc(F)c(Cc3cc4ccccc4s3)c2)C(O)CC1O` (stereo not drawn) [drawing 283]: 0 dead.
